From patent US20110015119A1, “NOVEL SEMI-SYNTHETIC GLYCOPEPTIDES AS ANTIBACTERIAL AGENTS” (LEAD THERAPEUTICS, INC., priority 2009, published 2011)
≈ marks a conversion by molar mass, not a printed value. Like-named read-outs stand apart in the source and are kept apart here.

Assays:
Format in all cases: cell-based
[1] = test system: Staphylococcus aureus 2012 (VISA); experiment: MIC by broth microdilution, SA 2012; settings: class symbols
Experimental: (§1) Antibacterial activity in vitro is investigated by broth microdilution method in Meuller-Hinton broth as recommended by NCCLS. All strains tested are clinical isolates either sensitive or resistant to natural glycopeptides. MIC values were determined using the CLSI-recommended broth microdilution procedure (Clinical and Laboratory Standards Institute, Methods for Dilution Antimicrobial Susceptibility Tests for Bacteria That Grow Aerobically; Approved Standard-Seventh Edition.). Automated liquid handlers (Multidrop 384, Labsystems, Helsinki, Finland; Biomek 2000 and Multimek 96, Beckman Coulter, Fullerton Calif.) were used to conduct serial dilutions and liquid transfers. The MIC value for vancomycin is given for comparison. The abbreviations for organisms tested are as follow: SA 100—Staphylococcus aureus 100 (ATCC 29213); SA 757—Staphylococcus aureus 757 (MRSA); SA 2012—Staphylococcus aureus 2012 (VISA); SE 835—Staphylococcus epidermidis 835; SE 831—Staphylococcus epidermidis 831 (MRSE); EFc 101—Enterococcus faecalis 101 (ATCC 29212); EFc 848—Enterococcus faecalis 848 (VRE, Van A); EFcm 800—Enterococcus faecium 800; EFcm 752—Enterococcus faecium 752 (VRE, Van A); SPNE 1195—Streptococcus pneumoniae 1195 (ATCC 49619); SPY 712—Streptococcus pyogenes 712.

[2] = test system: Streptococcus pyogenes 712; experiment: MIC by broth microdilution, SPY 712
Experimental: as §1

[3] = test system: Enterococcus faecalis 848 (VRE, Van A); experiment: MIC by broth microdilution, EFc 848; settings: class symbols
Experimental: as §1

[4] = test system: Staphylococcus epidermidis 835; experiment: MIC by broth microdilution, SE 835
Experimental: as §1

[5] = test system: Enterococcus faecium 752 (VRE, Van A); experiment: MIC by broth microdilution, EFcm 752; settings: class symbols
Experimental: as §1

[6] = test system: Streptococcus pneumoniae 1195 (ATCC 49619); experiment: MIC by broth microdilution, SPNE 1195
Experimental: as §1

[7] = test system: Staphylococcus epidermidis 831 (MRSE); experiment: MIC by broth microdilution, SE 831; settings: read-out: MIC SE 831
Experimental: as §1

[8] = test system: Staphylococcus aureus 757 (MRSA); experiment: MIC by broth microdilution, SA 757; settings: read-out: MIC SA 757
Experimental: as §1

Enterococcus faecium 800 = experiment: MIC by broth microdilution, EFcm 800
Experimental: as §1

[9] = test system: Enterococcus faecalis 101 (ATCC 29212); experiment: MIC by broth microdilution, EFc 101; settings: class symbols
Experimental: as §1

[10] = test system: Staphylococcus aureus 100 (ATCC 29213); experiment: MIC by broth microdilution, SA 100
Experimental: as §1

[11] = Staphylococcus aureus 2012 (VISA), read-out: MIC SA 2012
[12] = Streptococcus pyogenes 712, class symbols, read-out: MIC S PYO 712
[13] = Enterococcus faecalis 848 (VRE, Van A), read-out: MIC E FC 848
[14] = Staphylococcus epidermidis 835, class symbols, read-out: MIC SE 835
[15] = Enterococcus faecium 752 (VRE, Van A), read-out: MIC E FCM 752
[16] = ATCC49619, Streptococcus pneumoniae 1195 (ATCC 49619), class symbols, read-out: MIC S PNE 1195
[17] = Staphylococcus epidermidis 831 (MRSE), class symbols
[18] = Staphylococcus aureus 757 (MRSA), class symbols
[19] = Enterococcus faecium 800, class symbols, read-out: MIC E FCM 800
[20] = ATCC29212, Enterococcus faecalis 101 (ATCC 29212), read-out: MIC E FC 101
[21] = ATCC29213, Staphylococcus aureus 100 (ATCC 29213), class symbols, read-out: MIC SA 100
[22] = Staphylococcus aureus, VISA, read-out: MIC SA 2012, Staphylococcus aureus 2012 (VISA)
[23] = Streptococcus pyogenes, 712, read-out: MIC S PYO 712
[24] = Enterococcus faecalis, VRE, read-out: MIC E FC 848, Enterococcus faecalis 848 (VRE, Van A)
[25] = Staphylococcus epidermidis, 835, read-out: MIC SE 835
[26] = Enterococcus faecium, VRE, read-out: MIC E FCM 752, Enterococcus faecium 752 (VRE, Van A)
[27] = Streptococcus pneumoniae, ATCC49619, read-out: MIC S PNE 1195
[28] = Staphylococcus epidermidis, MRSE
[29] = Enterococcus faecium, 800, read-out: MIC E FCM 800
[30] = Enterococcus faecalis, ATCC29212, read-out: MIC E FC 101, Enterococcus faecalis 101 (ATCC 29212)
[31] = Staphylococcus aureus, ATCC29213, read-out: MIC SA 100

Row | MIC [1, 11] [µg/mL] | MIC [2, 12] [µg/mL] | MIC [3, 13] [µg/mL] | MIC [4, 14] [µg/mL] | MIC [5, 15] [µg/mL] | MIC [6, 16] [µg/mL] | MIC [7, 17] [µg/mL] | MIC [8, 18] [µg/mL] | MIC (Enterococcus faecium 800; [19]) [µg/mL] | MIC [9, 20] [µg/mL] | MIC [10, 21] [µg/mL] | SMILES | MIC [1, 22] [µg/mL] | MIC [2, 23] [µg/mL] | MIC [3, 24] [µg/mL] | MIC [4, 25] [µg/mL] | MIC [5, 26] [µg/mL] | MIC [6, 27] [µg/mL] | MIC [7, 28] [µg/mL] | MIC ([8]; Staphylococcus aureus, MRSA) [µg/mL] | MIC (Enterococcus faecium 800; [29]) [µg/mL] | also measured
1 | 0.01 to 0.5 (≈ 0.00547 to 0.274 µM) | 0.01 to 0.5 (≈ 0.00547 to 0.274 µM) | 8 to 16 (≈ 4.38 to 8.75 µM) | 0.01 to 0.5 (≈ 0.00547 to 0.274 µM) | 1 to 2 (≈ 0.547 to 1.09 µM) | 0.01 to 0.5 (≈ 0.00547 to 0.274 µM) | 0.01 to 0.5 (≈ 0.00547 to 0.274 µM) | 0.01 to 0.5 (≈ 0.00547 to 0.274 µM) | 0.01 to 0.5 (≈ 0.00547 to 0.274 µM) | 0.01 to 0.5 (≈ 0.00547 to 0.274 µM) | 0.01 to 0.5 (≈ 0.00547 to 0.274 µM) | CCCCCCc1ccc(S(=O)(=O)NCCCCCCNCc2c(O)cc3c(c2O)-c2cc(ccc2O)[C@H]2NC(=O)[C@@H]4NC(=O)[C@H](CC(N)=O)NC(=O)[C@H](NC(=O)[C@@H](CC(C)C)NC)[C@H](O)c5ccc(c(Cl)c5)Oc5cc4cc(c5O[C@@H]4O[C@H](CO)[C@@H](O)[C@H](O)[C@H]4O[C@H]4C[C@]5(C)NC(=O)O[C@@H]5[C@H](C)O4)Oc4ccc(cc4Cl)[C@@H](O)[C@H](NC2=O)C(=O)N[C@@H]3C(=O)O)cc1 (atropisomer, axis not shown) [Compound 305] | – | – | – | – | – | – | – | – | – | –
2 | 0.5 to 1 (≈ 0.275 to 0.551 µM) | 0.01 to 0.5 (≈ 0.00551 to 0.275 µM) | > 16 | 0.01 to 0.5 (≈ 0.00551 to 0.275 µM) | 4 to 8 (≈ 2.2 to 4.41 µM) | 0.01 to 0.5 (≈ 0.00551 to 0.275 µM) | 0.01 to 0.5 (≈ 0.00551 to 0.275 µM) | 0.01 to 0.5 (≈ 0.00551 to 0.275 µM) | 0.01 to 0.5 (≈ 0.00551 to 0.275 µM) | 0.01 to 0.5 (≈ 0.00551 to 0.275 µM) | 0.01 to 0.5 (≈ 0.00551 to 0.275 µM) | CCCCCCc1ccc(S(=O)(=O)NCCOCCNCc2c(O)cc3c(c2O)-c2cc(ccc2O)[C@H]2NC(=O)[C@@H]4NC(=O)[C@H](CC(N)=O)NC(=O)[C@H](NC(=O)[C@@H](CC(C)C)NC)[C@H](O)c5ccc(c(Cl)c5)Oc5cc4cc(c5O[C@@H]4O[C@H](CO)[C@@H](O)[C@H](O)[C@H]4O[C@H]4C[C@]5(C)NC(=O)O[C@@H]5[C@H](C)O4)Oc4ccc(cc4Cl)[C@@H](O)[C@H](NC2=O)C(=O)N[C@@H]3C(=O)O)cc1 (atropisomer, axis not shown) [Compound 308] | – | – | – | – | – | – | – | – | – | –
3 | – | – | – | – | – | – | – | – | – | – | – | CCCCCOc1ccc(S(=O)(=O)NCCCCCCNC(=O)Oc2cc(O)c3c(c2)[C@@H](C(=O)O)NC(=O)[C@H]2NC(=O)[C@H](NC(=O)[C@@H]4NC(=O)[C@H](CC(N)=O)NC(=O)[C@H](NC(=O)[C@@H](CC(C)C)NC)[C@H](O)c5ccc(c(Cl)c5)Oc5cc4cc(c5O[C@@H]4O[C@H](CO)[C@@H](O)[C@H](O)[C@H]4O[C@H]4C[C@](C)(N)[C@H](O)[C@H](C)O4)Oc4ccc(cc4Cl)[C@H]2O)c2ccc(O)c-3c2)cc1 (atropisomer, axis not shown) [Compound 322] | 1 to 2 (≈ 0.55 to 1.1 µM) | 0.01 to 0.5 (≈ 0.0055 to 0.275 µM) | 8 to 16 (≈ 4.4 to 8.8 µM) | 0.01 to 0.5 (≈ 0.0055 to 0.275 µM) | 2 to 4 (≈ 1.1 to 2.2 µM) | 0.01 to 0.5 (≈ 0.0055 to 0.275 µM) | 0.01 to 0.5 (≈ 0.0055 to 0.275 µM) | 0.01 to 0.5 (≈ 0.0055 to 0.275 µM) | 0.01 to 0.5 (≈ 0.0055 to 0.275 µM) | MIC [9, 30]: 0.01 to 0.5 µg/mL (≈ 0.0055 to 0.275 µM); MIC [10, 31]: 0.01 to 0.5 µg/mL (≈ 0.0055 to 0.275 µM)
4 | – | – | – | – | – | – | – | – | – | – | – | CCCOc1ccc(NC(=O)Oc2cc(O)c3c(c2)[C@@H](C(=O)O)NC(=O)[C@H]2NC(=O)[C@H](NC(=O)[C@@H]4NC(=O)[C@H](CC(N)=O)NC(=O)[C@H](NC(=O)[C@@H](CC(C)C)NC)[C@H](O)c5ccc(c(Cl)c5)Oc5cc4cc(c5O[C@@H]4O[C@H](CO)[C@@H](O)[C@H](O)[C@H]4O[C@H]4C[C@](C)(N)[C@H](O)[C@H](C)O4)Oc4ccc(cc4Cl)[C@H]2O)c2ccc(O)c-3c2)cc1 (atropisomer, axis not shown) [Compound 329] | 8 to 16 (≈ 4.92 to 9.84 µM) | 0.01 to 0.5 (≈ 0.00615 to 0.307 µM) | > 16 | 2 to 4 (≈ 1.23 to 2.46 µM) | > 16 | 0.01 to 0.5 (≈ 0.00615 to 0.307 µM) | 2 to 4 (≈ 1.23 to 2.46 µM) | 0.5 to 1 (≈ 0.307 to 0.615 µM) | 0.5 to 1 (≈ 0.307 to 0.615 µM) | MIC [9, 30]: 0.5 to 1 µg/mL (≈ 0.307 to 0.615 µM); MIC [10, 31]: 1 to 2 µg/mL (≈ 0.615 to 1.23 µM)
